Assay results: patent publication US7223865B2, “Chromogenic compounds, and use thereof as enzyme substrates” (Biomerieux, priority 2003, dated 2007)

Legend:
[1] = system: Klebsiella pneumonia (NCTC 10896); experiment: t-BOC-L-alanyl-L-alanyl-L-alanyl-peptidase activity on gelled medium, Example 11; type: cell-based; design: key to growth: ++ means good growth; + means moderate growth; +/− means poor growth; NG means no growth
Description: (§1) A gelled medium comprising this substrate is prepared as follows: 30 mg of the substrate are dissolved (heating) in 10 ml of sterile distilled water. Ten ml of this solution are then added to 90 ml of Columbia agar, kept molten at 50° C.
(§2) Various strains of microorganisms derived from the NCTC collection (National Collection of Type Cultures, Colindale, UK) were seeded onto the media thus obtained according to the multipoint inoculation described in example 8 above.
(§3) The colonies formed were examined visually after incubation for 24 h and 48 h. The color and the growth of these colonies were noted.

[2] = system: Staphylococcus aureus (NCTC 11939); experiment: as above; type: cell-based; design: key to growth: ++ means good growth; + means moderate growth; +/− means poor growth; NG means no growth
Description: as §1, §2, §3

[3] = system: Serratia marcescens (NCTC 10211); experiment: as above; type: cell-based; design: key to growth: ++ means good growth; + means moderate growth; +/− means poor growth; NG means no growth
Description: as §1, §2, §3

[4] = system: Salmonella poona (NCTC 4840); experiment: as above; type: cell-based; design: key to growth: ++ means good growth; + means moderate growth; +/− means poor growth; NG means no growth
Description: as §1, §2, §3

[5] = system: Burkholderia cepacia (NCTC 10743); experiment: as above; type: cell-based; design: key to growth: ++ means good growth; + means moderate growth; +/− means poor growth; NG means no growth
Description: as §1, §2, §3

[6] = system: Enterobacter cloacae (NCTC 11936); experiment: as above; type: cell-based; design: key to growth: ++ means good growth; + means moderate growth; +/− means poor growth; NG means no growth
Description: as §1, §2, §3

[7] = system: Shigella sonnei (NCTC 9774); experiment: as above; type: cell-based; design: key to growth: ++ means good growth; + means moderate growth; +/− means poor growth; NG means no growth
Description: as §1, §2, §3

[8] = system: Pseudomonas aeruginosa (NCTC 10662); experiment: as above; type: cell-based; design: key to growth: ++ means good growth; + means moderate growth; +/− means poor growth; NG means no growth
Description: as §1, §2, §3

[9] = system: Enterococcus faecalis (NCTC 12697); experiment: as above; type: cell-based; design: key to growth: ++ means good growth; + means moderate growth; +/− means poor growth; NG means no growth
Description: as §1, §2, §3

[10] = system: Salmonella typhimurium (NCTC 74); experiment: as above; type: cell-based; design: key to growth: ++ means good growth; + means moderate growth; +/− means poor growth; NG means no growth
Description: as §1, §2, §3

[11] = system: Escherichia coli O157 (NCTC 12079); experiment: as above; type: cell-based; design: key to growth: ++ means good growth; + means moderate growth; +/− means poor growth; NG means no growth
Description: as §1, §2, §3

[12] = system: Enterococcus faecium (NCTC 7171); experiment: as above; type: cell-based; design: key to growth: ++ means good growth; + means moderate growth; +/− means poor growth; NG means no growth
Description: as §1, §2, §3

[13] = system: Listeria monocytogenes (NCTC 11994); experiment: as above; type: cell-based; design: key to growth: ++ means good growth; + means moderate growth; +/− means poor growth; NG means no growth
Description: as §1, §2, §3

[14] = system: Staphylococcus aureus (NCTC 6571); experiment: as above; type: cell-based; design: key: ++ means good growth; + means moderate growth; +/− means poor growth; NG means no growth
Description: as §1, §2, §3

[15] = system: Enterococcus faecalis (NCTC 755); experiment: as above; type: cell-based; design: key: ++ means good growth; + means moderate growth; +/− means poor growth; NG means no growth
Description: as §1, §2, §3

Escherichia coli (009) = experiment: L-serine-aminopeptidase activity on gelled medium, Example 7; type: cell-based; details: 0.3 g/l, 18 to 24 hours
Description: (§4) A gelled medium comprising L-seryl-9-(4-amino-phenyl)acridine (hereinafter referred to as L-Ser-4-APA) is prepared as follows: 30 milligrams of L-Ser-4-APA are added to 4 grams of Columbia agar, that are added to 0.1 liter of distilled water and then autoclaved. This reaction medium is autoclaved at 116° C. for 20 minutes.
(§5) Microorganisms derived from the applicant's collection were seeded onto this medium using a suspension of 0.5 McFarland. The dishes were incubated at 37° C. for 24 hours. Samples of 10 μl of each suspension were cultured so as to produce colonies. The colonies formed were examined visually after incubation for 18 to 24 hours.
(§6) The color of these colonies was noted before and after the addition of a drop of acetic acid, hereinafter referred to as GAA (glacial acetic acid).

[16] = system: Staphylococcus aureus (008); experiment: as above; type: cell-based; details: 0.3 g/l, 18 to 24 hours
Description: as §4, §5, §6

[17] = system: Yersinia enterocolitica (061); experiment: as above; type: cell-based; details: 0.3 g/l, 18 to 24 hours
Description: as §4, §5, §6

[18] = system: Enterococcus faecalis (117); experiment: as above; type: cell-based; details: 0.3 g/l, 18 to 24 hours
Description: as §4, §5, §6

Candida albicans (138) = experiment: as above; type: cell-based; details: 0.3 g/l, 18 to 24 hours
Description: as §4, §5, §6

[19] = system: Klebsiella pneumoniae (012); experiment: as above; type: cell-based; details: 0.3 g/l, 18 to 24 hours
Description: as §4, §5, §6

[20] = substrate dissolution in autoclaved Columbia agar medium; type: physicochemical; details: 30 milligrams with 4 grams of Columbia agar in 0.1 liter of distilled water, autoclaved at 116° C. for 20 minutes
Description: as §4

C[C@H](NC(=O)OC(C)(C)C)C(=O)N[C@@H](C)C(=O)N[C@@H](C)C(=O)Nc1ccc(-c2c3ccccc3[n+](C)c3ccccc23)cc1.[Cl-] [t-BOC-L-Ala-Ala-Ala-4-AP-10-MA, t-BOC-L-alanyl-L-alanyl-L-alanyl-9-(4-aminophenyl)-10-methylacridine]
color of colonies ([1]; 24 h): Orange
growth ([1]; 24 h): ++
color of colonies ([1]; 48 h): Orange
growth ([1]; 48 h): ++
color of colonies ([2]; 24 h): Colorless
growth ([2]; 24 h): +
color of colonies ([2]; 48 h): Colorless
growth ([2]; 48 h): +
color of colonies ([3]; 24 h): Orange
growth ([3]; 24 h): ++
color of colonies ([3]; 48 h): Orange
growth ([3]; 48 h): ++
color of colonies ([4]; 24 h): Pale orange
growth ([4]; 24 h): (++)
color of colonies ([4]; 48 h): Pale orange
growth ([4]; 48 h): ++
color of colonies ([5]; 24 h): Orange
growth ([5]; 24 h): ++
color of colonies ([5]; 48 h): Orange
growth ([5]; 48 h): ++
color of colonies ([6]; 24 h): Orange
growth ([6]; 24 h): ++
color of colonies ([6]; 48 h): Orange
growth ([6]; 48 h): ++
color of colonies ([7]; 24 h): Pale orange
growth ([7]; 24 h): (++)
color of colonies ([7]; 48 h): Pale orange
growth ([7]; 48 h): ++
color of colonies ([8]; 24 h): Pale orange
growth ([8]; 24 h): (++)
color of colonies ([8]; 48 h): Pale Orange
growth ([8]; 48 h): ++
color of colonies ([9]; 24 h): Colorless
growth ([9]; 24 h): +/−
color of colonies ([9]; 48 h): Colorless
growth ([9]; 48 h): +/−
color of colonies ([10]; 24 h): Pale orange
growth ([10]; 24 h): (++)
color of colonies ([10]; 48 h): Pale orange
growth ([10]; 48 h): ++
color of colonies ([11]; 24 h): Pale orange
growth ([11]; 24 h): (++)
color of colonies ([11]; 48 h): Pale orange
growth ([11]; 48 h): ++
color of colonies ([12]; 24 h): Colorless
growth ([12]; 24 h): +/−
color of colonies ([12]; 48 h): Colorless
growth ([12]; 48 h): ++
color of colonies ([13]; 24 h): Colorless
growth ([13]; 24 h): +/−
color of colonies ([13]; 48 h): Colorless
growth ([13]; 48 h): +
growth ([14]; 24 h): NG
growth ([14]; 48 h): NG
growth ([15]; 24 h): NG
growth ([15]; 48 h): NG

N[C@@H](CO)C(=O)Nc1ccc(-c2c3ccccc3nc3ccccc23)cc1 [L-Ser-4-APA, L-Seryl-9-(4-aminophenyl)acridine]
Color (Escherichia coli (009); after GAA): pale orange
Intensity (Escherichia coli (009); after GAA): 2
Color (Escherichia coli (009); before GAA): cream
Color ([16]; after GAA): cream
Color ([16]; before GAA): cream
Color ([17]; after GAA): pale orange
Intensity ([17]; after GAA): 2
Color ([17]; before GAA): cream
Color ([18]; after GAA): cream
Color ([18]; before GAA): cream
Color (Candida albicans (138); after GAA): cream
Color (Candida albicans (138); before GAA): cream
Color ([19]; after GAA): pale orange
Intensity ([19]; after GAA): 2
Color ([19]; before GAA): cream
substrate in solution in the medium [20]: Most of the substrate is in solution
